According to US8173771B2, “Humanin receptor or humanin-like polypeptide receptor” (Keio Univeristy, priority 2005, dated 2012):
Peptide text beside a SMILES is read from it.

Molecular target: T1, HN receptor (HNR; CNTF-R/WSX-1/gp130) on F11 cells (Mus musculus, UniProt O70394+O88507)
T1 construct: endogenous in cells; host or cells: F11 neurohybrid cells
T1 sequence (O70394 25-623): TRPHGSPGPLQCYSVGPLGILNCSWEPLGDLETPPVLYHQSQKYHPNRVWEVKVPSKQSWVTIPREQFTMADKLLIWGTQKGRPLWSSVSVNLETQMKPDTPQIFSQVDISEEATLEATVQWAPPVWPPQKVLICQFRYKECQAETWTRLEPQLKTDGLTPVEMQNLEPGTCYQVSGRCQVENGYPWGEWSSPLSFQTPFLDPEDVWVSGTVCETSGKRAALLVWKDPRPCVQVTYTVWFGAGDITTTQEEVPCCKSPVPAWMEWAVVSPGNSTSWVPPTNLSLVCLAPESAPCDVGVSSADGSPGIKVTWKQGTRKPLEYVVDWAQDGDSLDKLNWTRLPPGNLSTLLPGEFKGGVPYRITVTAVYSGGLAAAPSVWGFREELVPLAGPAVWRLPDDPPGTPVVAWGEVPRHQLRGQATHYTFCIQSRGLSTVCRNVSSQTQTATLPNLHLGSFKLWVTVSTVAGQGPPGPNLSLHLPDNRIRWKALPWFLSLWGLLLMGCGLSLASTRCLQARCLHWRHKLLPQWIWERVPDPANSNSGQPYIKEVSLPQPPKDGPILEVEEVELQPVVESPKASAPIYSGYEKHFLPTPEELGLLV
T1 sequence (O88507 23-342): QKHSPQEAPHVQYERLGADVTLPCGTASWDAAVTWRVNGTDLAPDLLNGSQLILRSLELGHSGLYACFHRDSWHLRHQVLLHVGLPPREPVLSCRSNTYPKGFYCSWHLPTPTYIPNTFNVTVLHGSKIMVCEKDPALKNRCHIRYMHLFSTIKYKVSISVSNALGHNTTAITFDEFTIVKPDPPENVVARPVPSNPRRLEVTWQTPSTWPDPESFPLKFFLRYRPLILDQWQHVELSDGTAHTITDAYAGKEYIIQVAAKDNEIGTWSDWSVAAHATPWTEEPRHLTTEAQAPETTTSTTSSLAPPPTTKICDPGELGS
T1 sequence (Q00560 23-917 partner): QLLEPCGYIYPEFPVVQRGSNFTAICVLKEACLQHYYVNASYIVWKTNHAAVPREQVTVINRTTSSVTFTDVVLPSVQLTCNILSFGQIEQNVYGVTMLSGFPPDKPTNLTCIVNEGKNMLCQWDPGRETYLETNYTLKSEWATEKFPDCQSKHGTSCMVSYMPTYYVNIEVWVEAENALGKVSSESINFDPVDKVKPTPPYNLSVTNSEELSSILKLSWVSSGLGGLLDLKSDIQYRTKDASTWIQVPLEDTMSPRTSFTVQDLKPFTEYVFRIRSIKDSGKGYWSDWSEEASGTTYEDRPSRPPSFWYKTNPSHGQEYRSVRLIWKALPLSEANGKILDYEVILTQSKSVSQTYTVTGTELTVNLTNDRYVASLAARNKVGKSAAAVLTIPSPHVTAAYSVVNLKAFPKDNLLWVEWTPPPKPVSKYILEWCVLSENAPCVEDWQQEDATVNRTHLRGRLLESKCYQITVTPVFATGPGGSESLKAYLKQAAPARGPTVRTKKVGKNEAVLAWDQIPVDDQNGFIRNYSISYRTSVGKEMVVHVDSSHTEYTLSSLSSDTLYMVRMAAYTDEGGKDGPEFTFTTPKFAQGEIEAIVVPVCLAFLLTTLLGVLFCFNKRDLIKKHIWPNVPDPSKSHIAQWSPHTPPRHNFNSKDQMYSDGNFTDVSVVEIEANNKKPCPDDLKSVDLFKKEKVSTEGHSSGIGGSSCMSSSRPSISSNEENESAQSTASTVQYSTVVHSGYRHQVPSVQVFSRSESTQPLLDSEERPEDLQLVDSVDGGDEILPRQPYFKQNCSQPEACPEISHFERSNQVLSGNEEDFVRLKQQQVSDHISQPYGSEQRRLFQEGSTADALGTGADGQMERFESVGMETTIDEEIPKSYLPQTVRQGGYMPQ
Assay: Immunofluorescence-based binding assay (2): biotin-HN / biotin-HNG binding to F11 cells
Method: A) F11 cells were seeded on 96-well plates coated with poly-L-lysine (7×10^3 cells/well). An indicated amount of biotin-HN or biotin-HNG was added to the cells with or without 10 μM of unlabelled HNG or HNA, followed by a binding assay based on immunofluorescence reaction (2) (left panels). On the other hand, F11 cells were transfected with 0.5 μg of pcDNA3.1/GS-human CNTF-R, pEF1/MycHis-human WSX-1, and 1.0 μg of pCAG-human gp130. At 24 hrs after the transfection, the cells were re-seeded on 96-well plates coated with poly-L-lysine (7×10^3 cells/well). After 36 hrs the re-seeding, an indicated amount of biotin-HN or biotin-HNG was added to the cells with or without 10 μM of unlabeled HNG or HNA, followed by a binding assay based on immunofluorescence reaction (2) (right panels).
B) F11 cells were transfected with 0.5 μg of pRNA-U1.6/Shuttle vector, pRNA-U6.1/Shuttle-WSX-1 siRNA, pRNA-U6.1/Shuttle-CNTF-R siRNA, both pRNA-U6.1/Shuttle-WSX-1 siRNA and pRNA-U6.1/Shuttle-CNTF-R siRNA (0.5 μg each), pRNA-U6.1/Shuttle-FPR2 siRNA or pRNA-U6.1/Shuttle-LIFR siRNA. The total amount of vectors was adjusted to be 1.0 μg by including a backbone vector. At 24 hrs after the transfection, an indicated amount of biotin-HNG was added with or without unlabeled HNG, followed by a binding assay based on immunofluorescence reaction (2) at 72 hrs after the transfection.
E) F11 cells on 6-well plate (7×10^4 cells/well) were transfected with 1.0 μg of pRNA-U6.1/Shuttle vector, pRNA-U6.1/Shuttle-Bax siRNA, or both pRNA-U6.1/Shuttle-WSX-1 siRNA and pRNA-U6.1/Shuttle-CNTF-R siRNA (0.5 μg each). At 72 hrs after the transfection, the cells were added with an indicated amount of biotin-HN with or without unlabeled HN or HNA (100 μM) and subjected to an HN-binding assay based on immunofluorescence.
F11 cells (7×10^4/well in 6-well plates) were replated into 96-well plates (7×10^3 cells/well) at 24 hrs after transfection with indicated amounts of the plasmids encoding mycHis-WSX or V5-CNTF-R, and with PCAG-human gp130 if required. At 36 hrs after transfection, the cells were added with biotin-labeled HN or HNG of indicated concentrations in the presence or the absence of HNG (S14G-HN) or HNA (C8A-HN) of indicated concentrations (Hashimoto et al., 2001 a). After 6 hrs incubation, they were fixed with 4% paraformaldehyde in PBS for 30 min. After washing with PBS, cells were stained with FITC-conjugated avidin (Molecularprobe, Eugene, Oreg., USA). Immunofluorescence intensity was measured (excitation=485 nm, emission=535 nm) with a spectrofluorometer (Wallac1420 ARVOsx Multi Label Counter). Immunohistochemical analysis was done with a laser-scanning, confocal microscope LSM (Carl Zeiss, Germany).

## CC[C@H](C)[C@H](NC(=O)[C@H](CCC(=O)O)NC(=O)CNC(=O)[C@@H](NC(=O)[C@H](CC(C)C)NC(=O)[C@H](CC(C)C)NC(=O)[C@H](CC(C)C)NC(=O)[C@H](CC(C)C)NC(=O)[C@H](CS)NC(=O)[C@H](CO)NC(=O)[C@H](Cc1ccccc1)NC(=O)CNC(=O)[C@H](CCCNC(=N)N)NC(=O)[C@@H]1CCCN1C(=O)[C@H](C)NC(=O)[C@@H](N)CCSC)[C@@H](C)O)C(=O)N[C@@H](CC(=O)O)C(=O)N[C@@H](CC(C)C)C(=O)N1CCC[C@H]1C(=O)N[C@H](C(=O)N[C@@H](CCCCN)C(=O)N[C@@H](CCCNC(=N)N)C(=O)N[C@@H](CCCNC(=N)N)C(=O)N[C@@H](C)C(=O)O)C(C)C [HNG, S14 G-Humanin] (H-MAPRGFSCLLLLTGEIDLPVKRRA-OH; N-terminus and C-terminus assumed)
biotin-HNG, concentration-dependent binding
  concentration of saturation of binding: 10 nM
Expression of FPR2 or LIFR decreased by siRNA
  binding to F11 cells: not be affected
Specificity of binding
  inhibition of binding by over-addition of unlabeled peptide: almost completely inhibit
